Legend:
RXRs = experiment: RXR activation; format: cell-based
Text: (§1) The selection of a retinoid component useful in accordance with the present invention can be accomplished using straightforward, conventional testing and/or assays, such as the transactivation assays set forth in Evans et al., U.S. Pat. No. 5,217,867; 5,262,300; 5,310,662; and 5,906,920, each of which is hereby incorporated in its entirety herein by reference, which are well known in the art. Such testing and/or assays can identify suitable useful retinoid components without undue experimentation.
In other aspects of the present invention, one or more compounds, for example, from a screening library of compounds, which are known to have or have been tested, using conventional and well known techniques, and found to have useful RAR activity, can be individually or collectively tested for RXR activity using conventional and well known testing procedures. See, for example, the above-noted Evans et al. patents, in particular U.S. Pat. No. 5,906,920.

RARs = experiment: RAR activation and subtype selectivity; format: cell-based
Text: as §1
Other well known and straightforward test methods and/or assays may be employed to determine the selectivity or specificity of an RAR active compound to RAR-alpha, RAR-beta and RAR-gamma. For example, using conventional and well known assays, for example, such as set forth in Klein et al. U.S. Pat. No. 5,776,699, the disclosure of which is incorporated in its entirety herein by reference, and/or the above-noted Evans et al. patents, the selectively or specificity of a compound to RAR-alpha, RAR-beta and RAR-gamma can be determined. Based on the results of such assays, one can determine whether or not a compound is useful in accordance with one or more aspects of the present invention.

[1] = oral; cited from earlier work
[2] = relative to tamoxifen in the absence of bexarotene; cited from earlier work
sebaceous glands = conditions: severe acne; cited from earlier work
[3] = test system: patients with moderate to very severe plaque psoriasis; experiment: Open-label extension study of oral tazarotene in plaque psoriasis non-responders; format: in vivo, human; conditions: 4.5 mg once daily, extension treatment period, across both groups
Procedure: Two multicenter, double-blind, placebo-controlled studies ware conducted to evaluate the efficacy and safety of oral tazarotene (4.5 mg once daily) in patients with moderate to very severe plaque psoriasis. […] Efficacy evaluations include overall lesional assessment (OLA), percent body surface area involvement, global response to treatment, plaque elevation, scaling, and erythema. OLA is graded on a 6-point scale (0=none, 1=minimal, 2=mild, 3=moderate, 4=severe, 5=very severe).

[4] = test system: patients with severe nodulocystic acne; experiment: Multicenter double-blind placebo-controlled study of oral tazarotene in severe nodulocystic acne; format: in vivo, human
Text: A multicenter, double-blind, randomized, placebo-controlled parallel-group study is undertaken to determine the efficacy of orally administered tazarotene in treating severe nodulocystic acne.
In addition, washout periods for other medications for this study are: 1 week for vitamin A supplements >5000 IU; 2 weeks for topical anti-acne medications (e.g., retinoids, azelaic acid, benzoyl peroxide); 2 weeks for topical or systemic antibiotic therapy that may alter the course of acne; and 6 months for systemic retinoids.
Patients are randomized to receive placebo or oral tazarotene (0.75, 1.5, 3, or 6 mg), in a 1:1:1:1:1 ratio once daily for 24 weeks. After this, the patients are followed without treatment for an additional 12 weeks. Patients discontinuing from the treatment period due to adverse effects or lack of efficacy are eligible for entry into the post-treatment phase.
In the study, overall acne severity is rated as: none (no inflammatory acne lesions); mild (few to several papules or pustules, no nodulocystic lesions); moderate (several to many papules or pustules, few to several nodulocystic lesions); and severe (numerous or extensive papules or pustules, many, for example, at least about 5 or at least about 10, nodulocystic lesions).
Treatment success is defined as at least moderate (about 50%) improvement on the following 7-point global response scale: • 0=completely cleared • 1=almost cleared (about 90% improvement) • 2=marked response (about 75% improvement) • 3=moderate response (about 50% improvement) • 4=slight response (about 25% improvement) • 5=condition unchanged • 6=condition worsened
In this study, facial nodulocystic lesion count includes lesions greater than 5 mm in size. Facial papular/pustular lesion count includes lesions less than or equal to 5 mm in size. Facial non-inflammatory lesion count includes open and closed comedones.
Sebum output is assessed every 4 weeks at selected centers using the Sebutape® patches, sold by Cuderm Corporation. Urinalysis, chemistry, and hematology values are monitored. Bone formation and resorption assessments (serum bone alkaline phosphatase and serum amino terminal telopeptides, respectively) at selected centers are monitored.
Bone mineral density of spine and proximal femur at selected centers is monitored. Ligament calcification or osteophyte formation (lateral X-ray of the cervical and thoracic spine, and ankle calcaneous) is monitored. Epiphyseal growth plate closure (internal oblique X-ray of the ankle in patients less than or equal to 21 years old) is monitored.

patients = experiment: Two 24-week placebo-controlled safety studies of oral tazarotene plus 16- to 24-week dose-response evaluations; format: in vivo, human; conditions: 4.5 mg orally once daily
Procedure: Two multicenter, double-blind, randomized, placebo-controlled 24-week studies of identical design are conducted to evaluate the safety of oral tazarotene. In addition, 16- to 24-week dose-response evaluations are performed.
In the two safety trials, the incidence of adverse side effects with a 4.5 mg dose administered orally once daily is compared to the incidence of the same side effects with a placebo. […] The majority of these were mild in severity and typical of adverse effects associated with oral retinoids.

[5] = test system: patients having nodulocystic acne; experiment: Two placebo-controlled dose-ranging safety studies of oral tazarotene in nodulocystic acne; format: in vivo, human; conditions: for Emotional lability, patients: all cases mild
Procedure: Two placebo-controlled dose-ranging studies are conducted to evaluate the safety of oral tazarotene in patients having nodulocystic acne. In the first study, patients receive orally administered tazarotene at daily doses of 0.4 mg to 2.8 mg in 96 (71+25) patients (12 weeks treatment plus 12 weeks post-treatment). In the second study, daily doses of 0.75 mg to 6 mg tazarotene are administered to 181 patients (24 weeks treatment plus 12 weeks post-treatment).

[6] = Food effect on pharmacokinetics of tazarotenic acid after 6.3 mg oral tazarotene (high-fat breakfast vs 8-10 hour fast); format: in vivo, human; conditions: fed (high-fat meal) vs fasted
Procedure: For the purposes of this application, the bioavailability of a drug may be based on the human pharmokinetic parameters of maximum blood concentration (Cmax) and Area under the blood concentration-time curve (AUC).
The LC-MS/MS test for simultaneous detection of tazarotene and tazarotenic acid may be run as follows. One ml of plasma (EDTA-treated) is diluted with 1.0 ml of water. Diluted plasma is extracted using solid phase extraction (SPE) on a C18 cartridge. The eluate is evaporated, reconstituted in a water/methanol-based mobile phase, and injected onto a 4.6×50 mm, 3 μm pore size C-8 reverse phase high pressure liquid chromatography (HPLC) column (Agilent, Wilmington, Del.). Compounds are gradient-eluted at 1.2 mL/min and detected using an API 3000 triple quadrupole mass spectrometer with an Atmospheric Pressure Chemical Ionization (APCI) source (PE-Sciex, Concord, Ontario, Canada). […] The specific precursor-product ion pair monitored are m/z 352→324 for tazarotene, m/z […] for the tazarotene internal standard, m/z 324→294 for tazarotenic acid, and m/z 331→298 for the tazarotenic acid internal standard. The lower limit of quantitation at assay range tested is 0.1 ng/mL, with a coefficient of variation and deviation from nominal concentration of <15%.

Q: For `CC1(C)CC[S+]([O-])c2ccc(C#Cc3ccc(C(=O)O)cn3)cc21` (stereo not drawn) [AGN 190844], which “Activation of the RXRs” value (RXRs) is on record?
A: does not activate

Q: What about the “Activation of the RARs” value (RARs) of the same compound?
A: does not activate

Q: Which “Bioavailability in the presence of food” value [1] does the source give for `COc1cc(C)c(/C=C/C(C)=C/C=C/C(C)=C/C(=O)O)c(C)c1C` [acitretin] here?
A: increased in the presence of food

Q: What does the source list for `C=C(c1ccc(C(=O)O)cc1)c1cc2c(cc1C)C(C)(C)CCC2(C)C` [bexarotene]?
A: Bioavailability in the presence of food [1]: increased in the presence of food; Plasma concentration of coadministered tamoxifen [2]: reduced plasma concentration of tamoxifen

Q: Which “Bioavailability in the presence of food” value [1] does the source give for `CC1=C(/C=C/C(C)=C/C=C/C(C)=C\C(=O)O)C(C)(C)CCC1` [isotretinoin] here?
A: increased in the presence of food

Q: And the “Decrease in sebum secretion rate” value (sebaceous glands)?
A: about 90%

Q: Which Incidence of arthralgia [3] does the source give for `CCOC(=O)c1ccc(C#Cc2ccc3c(c2)C(C)(C)CCS3)nc1` [tazarotene] here?
A: 20%

Q: And the Incidence of asthenia [3]?
A: 6%

Q: And the “Incidence of back pain” value [3]?
A: 11%

Q: What about the Incidence of cheilitis [3] of the same compound?
A: 70%

Q: What about the “Incidence of dry skin” value [3] of the same compound?
A: 25%

Q: What about the Incidence of headache [3] of the same compound?
A: 11%

Q: What about the Incidence of hypertriglyceridemia [3] of the same compound?
A: 6%

Q: And the Incidence of infection [3]?
A: 10%

Q: And the Incidence of myalgia [3]?
A: 15%

Q: What about the “Patients withdrawing due to adverse events, treatment period” value (“Patients withdrawing due” below) ([4]; 0.75 mg group (2/35)) of the same compound?
A: 6%

Q: What about the “Patients withdrawing due” value ([4]; 1.5 mg group (0/37)) of the same compound?
A: 0%

Q: And the “Patients withdrawing due” value ([4]; 3 mg group (2/37))?
A: 5%

Q: What about the “Patients withdrawing due” value ([4]; 6 mg group (1/36)) of the same compound?
A: 3%

Q: And the “Reduction of overall acne severity vs placebo” value ([4]; 6 mg, from week 16 until end of post-treatment phase (p ≦0.01))?
A: significantly more than placebo

Q: And the “Abnormalities in liver function test results or elevated triglycerides, total cholesterol, or HDL cholesterol” value ([4]; 0.75 to 6 mg once daily, 24 weeks)?
A: not generally associated

Q: And the “Sebum secretion (Sebutape method) relative to placebo” value ([4]; 0.75 to 6 mg once daily, assessed every 4 weeks)?
A: does not substantially reduce sebum secretion

Q: And the “Incidence of altered hormone levels (elevated TSH and T4, decreased T4, abnormal thyroid function test)” value (patients)?
A: 0%

Q: What about the “Incidence of hypertriglyceridemia, hypercholesterolemia, abnormal liver function tests, increased ALT, increased AST, desquamation, eye dryness, alopecia” value (patients; vs placebo) of the same compound?
A: essentially the same incidence with oral tazarotene as with placebo

Q: What about the Severe dry skin ([5]; 3 mg and 6 mg groups) of the same compound?
A: No patient

Q: And the “Emotional lability, patients” value ([5]; 3 mg group (1 patient))?
A: 3%

Q: And the “Depression, patients” value ([5]; 3 mg group (3 patients: 2 mild, 1 severe))?
A: 8%

Q: And the “Emotional lability, patients” value ([5]; 6 mg group (5 patients))?
A: 14%

Q: What about the “Changes in urinalysis, chemistry, or hematology measures (liver function tests, triglycerides, total cholesterol, HDL cholesterol)” value ([5]; 0.4 to 6 mg daily) of the same compound?
A: no consistent dose-related clinically significant changes

Q: What about the “Ligament calcification, osteophyte formation, changes in serum bone alkaline phosphatase, serum amino terminal telopeptides, bone density” value ([5]; 0.4 to 6 mg daily) of the same compound?
A: not associated with any clinically significant

Q: And the “Patients withdrawing from either study due to adverse events” value ([5]; all groups of both studies incl. placebo (7/277))?
A: 2.5%

Q: With `CC1(C)CCSc2ccc(C#Cc3ccc(C(=O)O)cn3)cc21` [tazarotenic acid] as the compound, how does the “Cmax average ratio (test/reference) of tazarotenic acid” value ([6]; Day 0) read?
A: 1.00

Q: What about the “Cmax average ratio (test/reference) of tazarotenic acid” value ([6]; Day 9) of the same compound?
A: 0.829

Q: And the “Activation of the RXRs” value (RXRs)?
A: does not activate

Q: What about the RAR subtype selectivity (RARs) of the same compound?
A: selectivity for RAR-β and RAR-γ
